From US20080161269A1, “Compounds 620” (ASTRAZENECA AB, priority 2006, published 2008)
Structures can show the parent of a compound that is named as a salt.

Biological target: human β-Secretase (Homo sapiens, UniProt P56817)
Experiment: TR-FRET assay
Type: biochemical
Conditions: enzyme (truncated form) 0.3 nM; substrate (Europium)CEVNLDAEFK(Qsy7) 100 nM; pH4.5; 15 minutes at room temperature
Procedure: The enzyme used in the IGEN Cleavage-, Fluorescent-, TR-FRET- and the BiaCore assay is described as follows:
The gene was fused to the Fc domain of IgG1 (affinity tag) and stably cloned into HEK 293 cells. Purified sBACE-Fc is stored in Tris buffer, pH 9.2 and has a purity of 95%.
Dilute the enzyme (truncated form) to 6 μg/mL (stock 1.3 mg/mL) and the substrate (Europium)CEVNLDAEFK(Qsy7) to 200 nM (stock 60 μM) in reaction buffer (NaAcetate, chaps, triton x-100, EDTA pH4.5). The Biomek FX is used for all liquid handling and the enzyme and substrate solutions are kept on ice until they are placed in Biomek FX. Enzyme (9 μl) is added to the plate then 1 μl of compound in dimethylsulphoxide is added, mixed and pre-incubated for 10 minutes. Substrate (10 μl) is then added, mixed and the reaction proceeds in the dark for 15 minutes at room temperature. The reaction is stopped with the addition of Stop solution (7 μl, NaAcetate pH 9). The fluorescence of the product is measured on a Wallac Victor II plate reader with an excitation wavelength of 340 nm and an emission wavelength of 615 nm. The assay is done in a Costar 384 well round bottom, low volume, non-binding surface (Corning #3676). The final concentration of the enzyme is 0.3 nM; the final concentration of substrate is 100 nM (Km of ˜250 nM). The dimethylsulphoxide control defines the 100% activity level and 0% activity is defined by exclusion of the enzyme, only using reaction buffer instead.

human β-Secretase, sequence (P56817 22-460): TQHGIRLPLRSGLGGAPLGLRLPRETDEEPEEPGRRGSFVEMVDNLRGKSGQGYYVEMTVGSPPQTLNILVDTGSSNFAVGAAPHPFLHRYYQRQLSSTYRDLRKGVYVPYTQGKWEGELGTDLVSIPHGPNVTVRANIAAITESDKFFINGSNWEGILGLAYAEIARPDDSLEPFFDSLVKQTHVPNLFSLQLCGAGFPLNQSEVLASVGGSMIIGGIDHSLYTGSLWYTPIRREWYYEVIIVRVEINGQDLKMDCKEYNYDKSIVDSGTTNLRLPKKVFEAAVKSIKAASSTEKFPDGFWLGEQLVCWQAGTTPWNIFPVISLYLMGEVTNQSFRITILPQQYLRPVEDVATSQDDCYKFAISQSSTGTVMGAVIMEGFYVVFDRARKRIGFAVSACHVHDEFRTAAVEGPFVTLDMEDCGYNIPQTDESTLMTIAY

SMILES	IC50
COc1cncc(-c2cccc(C3(c4ccc([Si](C)(C)C)cc4)N=C(N)N(C)C3=O)c2)c1 (stereo not shown) [Example 16, 2-amino-5-[3-(5-methoxypyridin-3-yl)phenyl]-3-methyl-5-(4-trimethylsilylphenyl)imidazol-4-one acetic acid salt]	23 nM
CN1C(=O)C(c2ccc([Si](C)(C)C)cc2)(c2cccc(-c3cncnc3)c2)N=C1N (racemic) [Example 14, 2-Amino-3-methyl-5-(3-pyrimidin-5-ylphenyl)-5-[4-(trimethylsilyl)phenyl]-3,5-dihydro-4H-imidazol-4-one]	107 nM
CN1C(=O)C(c2ccc([Si](C)(C)C)cc2)(c2cccc(-c3cnccc3C#N)c2)N=C1N (stereo not shown) [Example 21, 3-[3-[2-amino-1-methyl-5-oxo-4-(4-trimethylsilylphenyl)imidazol-4-yl]phenyl]pyridine-4-carbonitrile Acetic Acid Salt]	460 nM
CN1C(=O)C(c2ccc([Si](C)(C)C)cc2)(c2cccc(-c3cncc(C#N)c3)c2)N=C1N (stereo not shown) [Example 19, 5-[3-[2-amino-1-methyl-5-oxo-4-(4-trimethylsilylphenyl)imidazol-4-yl]phenyl]pyridine-3-carbonitrile acetic acid salt]	118 nM
CN1C(=O)C(c2cccc(-c3ccc(F)nc3)c2)(c2cccc([Si](C)(C)C)c2)N=C1N (stereo not shown) [Example 28, 2-amino-4-(3-(6-fluoropyridin-3-yl)phenyl)-1-methyl-4-(3-(trimethylsilyl)phenyl)-1H-imidazol-5(4H)-one]	278 nM
COc1cccc(-c2cccc(C3(c4cccc([Si](C)(C)C)c4)N=C(N)N(C)C3=O)c2)n1 (stereo not shown) [Example 31, 2-amino-4-(3-(6-methoxypyridin-2-yl)phenyl)-1-methyl-4-(3-(trimethylsilyl)phenyl)-1H-imidazol-5(4H)-one]	1530 nM
CN1C(=O)C(c2ccc([Si](C)(C)C)cc2)(c2cccc(-c3cncnc3)c2)N=C1N (single isomer, unassigned) [Example 15 (isomer 1), 2-amino-3-methyl-5-(3-pyrimidin-5-ylphenyl)-5-[4-(trimethylsilyl)phenyl]-3,5-dihydro-4H-imidazol-4-one]	41 nM
CN1C(=O)C(c2cccc(-c3cccnc3F)c2)(c2cccc([Si](C)(C)C)c2)N=C1N (stereo not shown) [Example 30, 2-amino-4-(3-(2-fluoropyridin-3-yl)phenyl)-1-methyl-4-(3-(trimethylsilyl)phenyl)-1H-imidazol-5(4H)-one]	182 nM
CN1C(=O)C(c2ccc([Si](C)(C)C)cc2)(c2cccc(-c3cnc(F)nc3)c2)N=C1N (stereo not shown) [Example 25, 2-amino-5-[3-(2-fluoropyrimidin-5-yl)phenyl]-3-methyl-5-(4-trimethylsilylphenyl)imidazol-4-one]	460 nM
CN1C(=O)C(c2cccc(-c3cnccn3)c2)(c2cccc([Si](C)(C)C)c2)N=C1N (stereo not shown) [Example 32, 2-amino-1-methyl-4-(3-(pyrazin-2-yl)phenyl)-4-(3-(trimethylsilyl)phenyl)-1H-imidazol-5(4H)-one]	86 nM
CN1C(=O)C(c2cccc(-c3cncc(Cl)c3)c2)(c2cccc([Si](C)(C)C)c2)N=C1N (stereo not shown) [Example 27, 2-amino-4-(3-(5-chloropyridin-3-yl)phenyl)-1-methyl-4-(3-(trimethylsilyl)phenyl)-1H-imidazol-5(4H)-one]	163 nM
CN1C(=O)C(c2ccc([Si](C)(C)C)cc2)(c2cccc(-c3cccnc3)c2)N=C1N (stereo not shown) [Example 17, 2-amino-3-methyl-5-(3-pyridin-3-ylphenyl)-5-(4-trimethylsilylphenyl)imidazol-4-one acetic acid salt]	118 nM
COc1cccc(-c2cccc(C3(c4ccc([Si](C)(C)C)cc4)N=C(N)N(C)C3=O)c2)c1 (stereo not shown) [Example 12, 2-Amino-5-(3′-methoxybiphenyl-3-yl)-3-methyl-5-[4-(trimethylsilyl)phenyl]-3,5-dihydro-4H-imidazol-4-one]	84 nM
CN1C(=O)C(c2cccc(-c3cncnc3)c2)(c2cccc([Si](C)(C)C)c2)N=C1N (stereo not shown) [Example 26, 2-amino-1-methyl-4-(3-(pyrimidin-5-yl)phenyl)-4-(3-(trimethylsilyl)phenyl)-1H-imidazol-5(4H)-one]	135 nM
CN1C(=O)C(c2cccc(-c3cccnc3)c2)(c2cccc([Si](C)(C)C)c2)N=C1N (stereo not shown) [Example 29, 2-amino-1-methyl-4-(3-(pyridin-3-yl)phenyl)-4-(3-(trimethylsilyl)phenyl)-1H-imidazol-5(4H)-one]	202 nM
Cc1ncc(-c2cccc(C3(c4ccc([Si](C)(C)C)cc4)N=C(N)N(C)C3=O)c2)cn1 (stereo not shown) [Example 23, 2-amino-3-methyl-5-[3-(2-methylpyrimidin-5-yl)phenyl]-5-(4-trimethylsilylphenyl)imidazol-4-one acetic acid salt]	2260 nM
CN1C(=O)C(c2ccc([Si](C)(C)C)cc2)(c2cccc(-c3ccc(F)nc3)c2)N=C1N (stereo not shown) [Example 20, 2-amino-5-[3-(6-fluoropyridin-3-yl)phenyl]-3-methyl-5-(4-trimethylsilylphenyl)imidazol-4-one Acetic Acid Salt]	437 nM
CN1C(=O)C(c2ccc([Si](C)(C)C)cc2)(c2cccc(-c3cncc(F)c3)c2)N=C1N (stereo not shown) [Example 18, 2-amino-5-[3-(5-fluoropyridin-3-yl)phenyl]-3-methyl-5-(4-trimethylsilylphenyl)imidazol-4-one acetic acid salt]	180 nM
CN1C(=O)C(c2ccc([Si](C)(C)C)cc2)(c2cccc(-c3cnccn3)c2)N=C1N (stereo not shown) [Example 24, 2-amino-3-methyl-5-(3-pyrazin-2-ylphenyl)-5-(4-trimethylsilylphenyl)imidazol-4-one]	80 nM
CN1C(=O)C(c2ccc([Si](C)(C)C)cc2)(c2cccc(-c3cnn(C)c3)c2)N=C1N (stereo not shown) [Example 22, 2-amino-3-methyl-5-[3-(1-methylpyrazol-4-yl)phenyl]-5-(4-trimethylsilylphenyl)imidazol-4-one Acetic Acid Salt]	2740 nM
CN1C(=O)C(c2ccc([Si](C)(C)C)cc2)(c2cccc(-c3cccnc3F)c2)N=C1N (stereo not shown) [Example 13, 2-Amino-5-[3-(2-fluoropyridin-3-yl)phenyl]-3-methyl-5-[4-(trimethylsilyl)phenyl]-3,5-dihydro-4H-imidazol-4-one]	81 nM
CN1C(=O)C(c2ccc([Si](C)(C)C)cc2)(c2cccc(-c3cncnc3)c2)N=C1N (single isomer, unassigned) [Example 15 (isomer 2), 2-amino-3-methyl-5-(3-pyrimidin-5-ylphenyl)-5-[4-(trimethylsilyl)phenyl]-3,5-dihydro-4H-imidazol-4-one]	> 10000 nM
